Data set [1] has as its target T1, human neutrophil elastase (HNE) (Homo sapiens, UniProt P08246).
T1 sequence (P08246 30-267): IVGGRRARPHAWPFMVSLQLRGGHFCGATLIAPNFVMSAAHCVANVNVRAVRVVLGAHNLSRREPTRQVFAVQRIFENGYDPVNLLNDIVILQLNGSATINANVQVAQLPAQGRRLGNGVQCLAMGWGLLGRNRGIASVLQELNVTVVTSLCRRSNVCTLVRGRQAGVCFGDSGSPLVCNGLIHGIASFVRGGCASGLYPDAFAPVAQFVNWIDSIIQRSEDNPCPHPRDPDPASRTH
Kind of data set: HNE Ki of CE compounds, tested as described in WO 96/16080. The data set is classed as biochemical. Conditions: read-out: HNE Ki.

Data set [2] has as its system polymorphoneucleocyte (PMN). Nature of the data set: Extracellular Matrix (ECM) degradation assay. Format: cell-based. The note with it: PMN's stimulated with opsonized zymosan, 4 hr at 37° C.; for ECM DATA % Inhibition 1 uM / inhibition at 1 µM: 1 uM inhibitor; for ECM DATA % Inhibition 5 uM / inhibition at 5 µM: 5 uM inhibitor. On the procedure:
Forty-eight well plates on which extracellular matrix had been established were supplied to Cortech by Dr. Simon's group at the State University of New York at Stony Brook. Briefly, the plates were prepared as follows: R22 rat heart smooth muscle cells were seeded into wells at 2.5×10^4 cells/cm. The cells were fed every 4 days with Eagle's Minimal Essential Media supplemented with fetal bovine serum, tryptose phosphate broth, cefotaxime and streptomycin. At confluence, daily supplements of 50 ug/ml ascorbic acid were added for 8 to 10 days during the synthesis of the ECM layer. [^35S]sulfate and [^3H]proline were also added to the culture media to incorporate radiolabel into the matrix. Cells were later lysed with 25 mM NH4OH. Plates were washed three times with water and once with phosphate-buffered saline containing 0.02% NaN3. Plates were stored at 4° C. until use.
Matrix degradation assays were performed as follows: 0.40 ml of Hanks balance salt solution (HBSS) containing 1 or 5 uM test inhibitor (final concentration; diluted from DMSO stock solution; <2% DMSO final concentration) was added to the wells. After 30 minutes, 50 ul of a polymorphoneucleocyte (PMN) suspension was added resulting in 5×10^5 cells/well. PMN's were stimulated with opsonized zymosan. Zymosan particles were washed and suspended in 0.5 ml human serum for 1 hr at 37° C., vortexing every 15 min. The particles were then washed three times with HBSS and added to wells at a ratio of 10 particles/PMN in a volume of 50 ul. After a 4 hr incubation at 37° C., a 100 ul aliquot of the supernatant was withdrawn for scintillation counting. Following removal of the remaining supernatant, the residual ECM was solubilized with 0.5 ml 2M NaOH. The amount of tritium in this solubilized ECM was accessed by scintillation. ECM degradation data are expressed as (soluble counts released/total ECM counts)—(basal counts released without PMN's/total ECM counts).

Data set [3] in a line: Blood level screening after oral dose. Format: in vivo, Sprague-Dawley rats. The note with it: rat, oral gavage 10 mg/kg; for concentration at 1 h / concentration at 3 h / concentration at 6 h: male, Sprague-Dawley, plasma; for concentration at 1 h: read-out: Plasma Levels (μM) 1 hr; for concentration at 3 h: read-out: Plasma Levels (μM) 3 hr; for concentration at 6 h: read-out: Plasma Levels (μM) 6 hr. The method, then:
The inhibitors were dissolved or suspended in polyethylene glycol (PEG), PEG-400 or PEG:H2O:EtOH at a concentration of 10 mg/ml. Unfasted male Sprague-Dawley rats were given an oral dose of this solution by gavage. Rats received 10 mg inhibitor/kg body weight in a volume of 1 ml/kg. After 1,3 or 6 hr., the rats were killed with an overdose of urethane (2.5 g/kg; i.p.) and the blood collected in a heparinized tube via cardiac puncture. Red blood cells were separated from the plasma by centrifugation.
Depending on the inhibitor, one of four organics (ethyl acetate, toluene, isopropyl ether or methyl t-butyl ether) was used to extract the compound from the plasma. Inhibitor concentrations were measured by HPLC or LC/MS analysis.

On to “2-[(4-Fluorophenyl)-1,6-dihydro-1-pyrimidinyl]-N-[1-(2-[5-(3-methylbenzyl)-1,3,4-oxadiazolyl]carbonyl)-2-(S)-methylpropyl]acetamide [CE2254]”, for which the Ki in data set [1] came to 2.4 nM. Further, in data set [2], the “ECM DATA % Inhibition 1 uM” value is reported as 57.2% and the “ECM DATA % Inhibition 5 uM” value is 58.4%. For the same compound, in data set [3], the “Plasma Levels (μM) 1 hr” value amounted to 1.751 µM and the “Plasma Levels (μM) 3 hr” value was 1.575 µM. Further, in data set [3] (6 hr), the “Plasma Levels (μM) 6 hr” value was 2.316 µM.

As for `Cc1cccc(Cc2nnc(C(=O)[C@@H](NC(=O)[C@@H]3CCCN3C(=O)[C@@H](NC(=O)OCc3ccccc3)C(C)C)C(C)C)o2)c1` [CE2072, (Benzyloxycarbonyl)-L-valyl-N-[1-(2-[5-(3-methylbenzyl)-1,3,4-oxadiazolyl]carbonyl)-2-(S)-methylpropyl]-L-prolinamide], in data set [2], the inhibition at 1 µM was 64.8% and 5 µM produced 74.5% inhibition. For the same compound, in data set [3], the concentration at 1 h was 0.277 µM and the concentration at 3 h was determined as 0.115 µM. For the same compound, in data set [3] (6 hr), the concentration at 6 h was determined as 0.061 µM.

In the case of `CC(C)[C@H](NC(=O)[C@@H]1CCCN1C(=O)[C@@H](NC(=O)OCc1ccccc1)C(C)C)C(=O)c1nnc(Cc2ccc(N(C)C)cc2)o1` [CE2100, (Benzyloxycarbonyl)-L-valyl-N-[1-(2-[5-(4-Dimethylaminobenzyl)-1,3,4-oxadiazolyl]carbonyl)-2-(S)-methylpropyl]-L-prolinamide], the Ki in data set [1] was 0.069 nM. In data set [2], this compound gave an inhibition at 1 µM of 57.6% and an inhibition at 5 µM of 56.6%. Moreover, the concentration at 3 h in data set [3] is 0.064 µM.

`Cc1cccc(Cc2nnc(C(=O)[C@@H](NC(=O)Cn3c(-c4ccc(F)cc4)ncc(N)c3=O)C(C)C)o2)c1` [CE2101, 2-[5-Amino-6-oxo-2-(4-fluorophenyl)-1,6-dihydro-1-pyrimidinyl]-N-[1-(2-[5(3-methylbenzyl)-1,3,4-oxadiazolyl]carbonyl)-2-(S)-methylpropyl]acetamide]: in data set [2], the inhibition at 1 µM is 44.6% and the inhibition at 5 µM is 51.2%. For the same compound, in data set [3], the concentration at 1 h is 1.24 µM and the concentration at 3 h stood at 1.37 µM. For the same compound, the concentration at 6 h in data set [3] (6 hr) amounted to 1.04 µM.

For the compound `Cc1cccc(Cc2nnc(C(=O)C(NC(=O)C3Cc4cccc5c4N3C(=O)C(N)CC5)C(C)C)o2)c1` [CE2130, (2S,5S)-5-Amino-1,2,4,5,6,7-hexahydroazepino-[3,2,1]-indole-4-one-carbonyl-N-[1-(2-[5-(3-methylbenzyl)-1,3,4-oxadiazolyl]carbonyl)-(R,S)-2-methylpropyl]amide], the Ki in data set [1] came out at 2.1 nM. In data set [2], the inhibition at 1 µM was found to be 16.3% and at 5 µM the inhibition was 29%. For the same compound, the concentration at 3 h in data set [3] came to 0.162 µM.

For the compound `Cc1cccc(Cc2nnc(C(=O)C(NC(=O)CN3C(=O)C(N)N=C(c4ccccc4)c4ccccc43)C(C)C)o2)c1` [CE2134, (R,S)-3-Amino-2-oxo-5-phenyl-1,4,-benzodiazepine-N-[1-(2-[5-(3-methylbenzyl)-1,3,4-oxadiazolyl]carbonyl)-2-(S)-methylpropyl]acetamide], the Ki in data set [1] is 2 nM. In data set [2], this compound returned an inhibition at 1 µM of 21.7% and an inhibition at 5 µM of 25.7%. The concentration at 3 h in data set [3] came to 5.02 µM.

For the compound `Cc1cccc(Cc2nnc(C(=O)C(NC(=O)CN3C(=O)NC(c4ccccc4)C3=O)C(C)C)o2)c1` [CE2149, 5-(R,S)-Phenyl-2,4-imidazolidinedione-N-[1-(2-[5-(3-methylbenzyl)-1,3,4-oxadiazolyl]carbonyl)-2-(S)-methylpropyl]acetamide], the inhibition constant Ki in data set [1] worked out at 0.28 nM. Also, in data set [2], the inhibition at 1 µM stood at 51.3% and the inhibition at 5 µM was determined as 55.9%. In addition, in data set [3], the concentration at 1 h stood at 0 µM and the concentration at 3 h was found to be 0 µM. Further, in data set [3] (6 hr), the concentration at 6 h was 0 µM.

For the compound `Cc1cccc(Cc2nnc(C(=O)[C@@H](NC(=O)CN3C(=O)CN=C(c4ccccc4)c4ccccc43)C(C)C)o2)c1` [CE2157], in data set [1], the Ki stood at 1.4 nM. In data set [2], this compound displayed an inhibition at 1 µM of 9.96% and an inhibition at 5 µM of 13.4%. In addition, the concentration at 3 h in data set [3] amounted to 3.81 µM.

As for `Cc1cccc(Cc2nnc(C(=O)[C@@H](NC(=O)[C@@H]3CCCN3C(=O)[C@@H](NS(C)(=O)=O)C(C)C)C(C)C)o2)c1` [CE2163, Methylsulfonyl-L-valyl-N-[1-(2-[5-(3-methylbenzyl)-1,3,4-oxadiazolyl]carbonyl)-2-(S)-methylpropyl]-L-prolinamide], the inhibition constant Ki in data set [1] came out at 0.75 nM. In data set [2], this compound had an inhibition at 1 µM of 54.7% and an inhibition at 5 µM of 64%. In addition, the concentration at 3 h in data set [3] was found to be 0.316 µM.

Turning to `Cc1cccc(Cc2nnc(C(=O)[C@@H](NC(=O)CN3C(=O)N[C@H](C(C)C)C3=O)C(C)C)o2)c1` [CE2174, 4-(R)-Isopropyl-2,5-imidazolidinedione-N-[1-(2-[5-(3-methylbenzyl)-1,3,4-oxadiazolyl]carbonyl)-2-(S)-methylpropyl]acetamide], the Ki in data set [1] is 15.2 nM. In data set [2], the “ECM DATA % Inhibition 1 uM” value is given as 1.49% and the “ECM DATA % Inhibition 5 uM” value was 18.3%. In addition, in data set [3], the “Plasma Levels (μM) 1 hr” value was 1.86 µM and the “Plasma Levels (μM) 3 hr” value is 0.97 µM.

As to `CC(C)[C@H](NC(=O)[C@@H]1CCCN1C(=O)[C@@H](NC(=O)OCc1ccccc1)C(C)C)C(=O)c1nnc(Cc2ccc3c(c2)OCO3)o1` [CE2177, (Benzyloxycarbonyl)-L-valyl-N-[1-(2-[5-(3,4-methylenedioxybenzyl)-1,3,4-oxadiazolyl]carbonyl)-2-(S)-methylpropyl]-L-prolinamide], the Ki in data set [1] is 0.016 nM. In data set [2], this compound showed an inhibition at 1 µM of 74.2% and an inhibition at 5 µM of 76.8%. In data set [3], the concentration at 1 h is 0.393 µM and the concentration at 3 h turned out to be 0.41 µM. The concentration at 6 h in data set [3] (6 hr) is 0 µM.

Regarding `CC(C)[C@H](NC(=O)[C@@H]1CCCN1C(=O)[C@@H](NC(=O)OCc1ccccc1)C(C)C)C(=O)c1noc(Cc2ccc3c(c2)OCO3)n1` [CE2178, (Benzyloxycarbonyl)-L-valyl-N-[1-(3-[5-(3,4-methylenedioxybenzyl)-1,2,4-oxadiazolyl]carbonyl)-2-(S)-methylpropyl]-L-prolinamide], in data set [1], the Ki is 0.29 nM. The compound further returned an inhibition at 5 µM in data set [2] of 34%. The concentration at 3 h in data set [3] was determined as 0.185 µM.

Regarding `Cc1cccc(Cc2nnc(C(=O)C(NC(=O)CN3C(=O)C(c4ccccc4)N(C)C3=O)C(C)C)o2)c1` [CE2179, 5-(R,S)-Phenyl-1-methyl-2,4-imidazolidinedione-N-[1-(2-[5-(3-methylbenzyl)-1,3,4-oxadiazolyl]carbonyl)-2-(S)-methylpropyl]acetamide], the Ki in data set [1] was 7.6 nM. Moreover, in data set [2], the inhibition at 1 µM came out at 48.8% and the inhibition at 5 µM was determined as 45.9%. In data set [3], the concentration at 1 h amounted to 1.23 µM and the concentration at 3 h turned out to be 0.599 µM.

On to `Cc1cccc(Cc2nnc(C(=O)C(NC(=O)CN3C(=O)C(Cc4ccccc4)N(CCN4CCOCC4)C3=O)C(C)C)o2)c1` [CE2184, 1-(N-Morpholinoethyl)-5-(S)-benzyl-2,4-imidazolidinedione-N-[1-(2-[5-(3-methylbenzyl)-1,3,4-oxadiazolyl]carbonyl)-2-(R,S)-methylpropyl]acetamide], for which, in data set [1], the inhibition constant (Ki) amounted to 8.2 nM. Also, in data set [2], the inhibition at 1 µM came to 30.5% and the inhibition at 5 µM came out at 32.4%. In addition, in data set [3], the concentration at 3 h was found to be 0.57 µM.

As to `Cc1cccc(Cc2nnc(C(=O)[C@@H](NC(=O)CN3C(=O)NC(c4ccc(N(C)C)cc4)C3=O)C(C)C)o2)c1` (stereo partly shown) [CE2194], the Ki in data set [1] was 2.4 nM. Also, in data set [2], the “ECM DATA % Inhibition 1 uM” value is on record as 41% and the “ECM DATA % Inhibition 5 uM” value worked out at 58.7%. In data set [3], the “Plasma Levels (μM) 1 hr” value was determined as 1.11 µM and the “Plasma Levels (μM) 3 hr” value was 0.553 µM.
